This is an account of results in BindingDB's records for doi:10.1016/j.bioorg.2016.08.005 (Comsats Institute of Information Technology, 2016).

The term IC50 denotes the midpoint of a concentration-inhibition curve. Lower therefore signals greater potency in that assay.

In assay [1] the target is Aldo-keto reductase family 1 member B1 [K65Q] (Bos taurus, UniProt P16116, K65Q). The experiment in a line: ALR2 in vitro Inhibition Assay. As to the method: The activity of ALR2 enzyme was determined at 340 nm in UV spectrophotometer that depends upon the measurement of NADPH consumption. Each well of the 96-well plate contains 200 µL of assay mixture consisting of potassium phosphate buffer 100 mMat 6.2 pH, 20 µL of 10 mM test sample, 70 µL of enzyme preparation and substrate D,L-glyceraldehyde (40 µL), all mixture was incubated at 37 °C for 5 min and then 0.1 mM NADPH (50 µL) was added as a cofactor in the enzyme reaction and read was measured at 340 nm and followed by incubation at 37 °C for 10 min and thenabsorbance was measured in Eliza plate reader at respective wavelength. Negative and positive control used were 10 m M buffer (20 µL) and 10 mM sulindac (20 µL) [Med. Chem. Commun., 5:1371-1380].

In assay [2] the target is Aldo-keto reductase family 1 member A1 (Bos taurus, UniProt Q3ZCJ2). Nature of the assay: ALR1 in vitro Inhibition Assay. The settings on record: pH 6.2. As to the method:
The assay results were obtained at 340 nm and ALR1 inhibitory activity was measured with the absorbance change at this respective wavelength. Each well contains 200 µL of assay mixture containing potassium phosphate buffer 100 mM at pH 6.2 with test sample 20 µL of 10 mM, 70 µL enzyme preparation and 40 µL of10 mM sodium D-glucoronic acid as a substrate. This mixture was incubated at 37 °C for 5 min and 50 µL of 0.1 mM NADPH as a cofactor was added and the read was obtained at 340 nm. The assay mixture was incubated again at 37 °C for 10 min and the read was taken at the respective UV range in ELIZA plate reader. As positive and negative control, 10 mM valproic acid (20 µL) and buffer solution (20 µL) were used [Biol. Chem., 240:877-882].

Aldo-keto reductase family 1 member A1, sequence (Q3ZCJ2 whole entry): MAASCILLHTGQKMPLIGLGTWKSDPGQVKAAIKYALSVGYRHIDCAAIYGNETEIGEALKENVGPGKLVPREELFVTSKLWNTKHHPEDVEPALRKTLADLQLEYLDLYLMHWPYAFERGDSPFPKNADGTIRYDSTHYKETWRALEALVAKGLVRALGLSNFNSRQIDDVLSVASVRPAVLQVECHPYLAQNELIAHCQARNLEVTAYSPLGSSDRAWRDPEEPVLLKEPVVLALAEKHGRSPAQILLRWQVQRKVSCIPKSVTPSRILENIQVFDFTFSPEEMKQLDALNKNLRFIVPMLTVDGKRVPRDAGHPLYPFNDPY

The compound `CC1=C(CC(=O)O)c2cc(F)ccc2/C1=C\c1ccc([S@@+](C)[O-])cc1` [cis-5-Fluoro-2-methyl-1-((p-methylsulfinyl)benzylidene)indene-3-acetic acid] had an IC50 in assay [1] of 0.293 µM.
`O=c1oc2ccccc2cc1-c1csc(NN=C(c2ccccc2)c2ccccc2)n1` [3-(2-(2-(diphenylmethylene)hydrazinyl)thiazol-4-yl)-2Hchromen-2-one (6n)]: in assay [2], the half-maximal inhibitory concentration (IC50) was found to be 17.1 µM. This counts as double-digit micromolar.
In assay [1], `O=c1oc2ccccc2cc1-c1nn(CNc2ccccc2Cl)c(=S)o1` [3-(4-((2-Chlorophenylamino)methyl)-5-thioxo-4,5-dihydro-1,3,4-oxadiazol-2-yl)-2H-chromen-2-one (11d)] registered an IC50 of 0.31 µM.
In assay [2], `O=c1oc2ccccc2cc1-c1nn(CNc2cccc(Cl)c2)c(=S)o1` [3-(4-((3-Chlorophenylamino)methyl)-5-thioxo-4,5-dihydro-1,3,4-oxadiazol-2-yl)-2H-chromen-2-one (11e)] gave a half-inhibitory concentration (IC50) of 15.2 µM.
On to `C/C(=N\Nc1nc(-c2cc3ccccc3oc2=O)cs1)c1cccc(Br)c1` [(E)-3-(2-(2-(1-(3-bromophenyl)ethylidene)hydrazinyl)thiazol-4-yl)-2H-chromen-2-one (6d)], for which the values for the half-maximal inhibitory concentration (IC50) in assay [2] and in assay [1] were 93.6 µM and 6.35 µM, respectively.
Compound `COc1ccc(/C(C)=N/Nc2nc(-c3cc4ccccc4oc3=O)cs2)cc1` [(E)-3-(2-(2-(1-(4-methoxyphenyl)ethylidene)hydrazinyl)thiazol-4-yl)-2H-chromen-2-one (6h)] showed a concentration for half-maximal inhibition (IC50) in assay [2] of 7.62 µM.
Turning to `C/C(=N\Nc1nc(-c2cc3ccccc3oc2=O)cs1)c1ccccc1` [Coumarin-thiazole series I, 6a], the half-maximal inhibitory concentration (IC50) in assay [2] was found to be 2.94 µM; in assay [1], 0.12 µM.
As to `COc1ccc(/C(C)=N/Nc2nc(-c3cc4ccccc4oc3=O)cs2)cc1I` [(E)-3-(2-(2-(1-(3-iodo-4-methoxyphenyl)ethylidene)hydrazinyl)thiazol-4-yl)-2H-chromen-2-one (6l)], the IC50 in assay [2] is 14.4 µM. That is a double-digit micromolar value.
As for `O=c1oc2ccccc2cc1-c1nn(CN2CCOCC2)c(=S)o1` [3-(4-(Morpholinomethyl)-5-thioxo-4,5-dihydro-1,3,4-oxadiazol-2-yl)-2H-chromen-2-one (11g)], it took 0.34 µM to reach half-maximal inhibition in assay [1] (IC50).
In assay [2], `C/C(=N\Nc1nc(-c2cc3ccccc3oc2=O)cs1)c1ccccc1F` [(E)-3-(2-(2-(1-(2-fluorophenyl)ethylidene)hydrazinyl)thiazol-4-yl)-2H-chromen-2-one (6f)] gave an IC50 of 57.4 µM.
As for `O=c1oc2ccccc2cc1-c1nn(CN(c2ccccc2)c2ccccc2)c(=S)o1` [3-(4-((Diphenylamino)methyl)-5-thioxo-4,5-dihydro-1,3,4-oxadiazol-2-yl)-2H-chromen-2-one (11h)], 3.39 µM corresponded to half-maximal inhibition in assay [1] (IC50).
`C/C(=N\Nc1nc(-c2cc3ccccc3oc2=O)cs1)c1ccccc1Br` [(E)-3-(2-(2-(1-(2-bromophenyl)ethylidene)hydrazinyl)thiazol-4-yl)-2H-chromen-2-one (6c)]: the 50% inhibitory concentration (IC50) in assay [2] came out at 34.7 µM; in assay [1], 0.16 µM.
In assay [2], `C/C(=N\Nc1nc(-c2cc3ccccc3oc2=O)cs1)c1cc2ccccc2oc1=O` [Coumarin-thiazole series I, 6o] had a 50% inhibitory concentration (IC50) of 8.91 µM.
Turning to `COc1ccc(/C(C)=N/Nc2nc(-c3cc4ccccc4oc3=O)cs2)cc1F` [(E)-3-(2-(2-(1-(3-fluoro-4-methoxyphenyl)ethylidene)hydrazinyl)thiazol-4-yl)-2H-chromen-2-one (6i)], 1.08 µM corresponded to half-maximal inhibition in assay [2] (IC50).
As for `COc1ccc(/C(C)=N/Nc2nc(-c3cc4ccccc4oc3=O)cs2)c(O)c1` [(E)-3-(2-(2-(1-(2-hydroxy-4-methoxyphenyl)ethylidene)hydrazinyl)thiazol-4-yl)-2H-chromen-2-one (6j)], the midpoint of inhibition in assay [2], the IC50, lay at 5.47 µM.
On to `COc1cc(/C(C)=N/Nc2nc(-c3cc4ccccc4oc3=O)cs2)ccc1O` [(E)-3-(2-(2-(1-(4-hydroxy-3-methoxyphenyl)ethylidene)hydrazinyl)thiazol-4-yl)-2H-chromen-2-one (6k)], for which the results for the IC50 in assay [2] and in assay [1] were 1.41 µM and 1.76 µM, respectively.
The corresponding values for `C/C(=N\Nc1nc(-c2cc3ccccc3oc2=O)cs1)c1ccc(Br)cc1` [(E)-3-(2-(2-(1-(4-bromophenyl)ethylidene)hydrazinyl)thiazol-4-yl)-2H-chromen-2-one (6e)] are 1.71 µM and 0.11 µM.
Compound `Cc1ccc(NCn2nc(-c3cc4ccccc4oc3=O)oc2=S)cc1` [3-(4-((p-Toluidino)methyl)-5-thioxo-4,5-dihydro-1,3,4-oxadiazol-2-yl)-2H-chromen-2-one (11c)] came in with an IC50 in assay [2] of 7.11 µM. That is a single-digit micromolar value.
As for `O=c1oc2ccccc2cc1-c1nn(CNc2ccc(Cl)cc2)c(=S)o1` [3-(4-((4-Chlorophenylamino)methyl)-5-thioxo-4,5-dihydro-1,3,4-oxadiazol-2-yl)-2H-chromen-2-one (11f)], the values for the IC50 in assay [2] and in assay [1] were 5.68 µM and 3.39 µM, respectively.
With `CCCCNCn1nc(-c2cc3ccccc3oc2=O)oc1=S` [3-(4-((Butylamino)methyl)-5-thioxo-4,5-dihydro-1,3,4-oxadiazol-2-yl)-2H-chromen-2-one (11b)], the values for the half-inhibitory concentration (IC50) in assay [2] and in assay [1] were 3.36 µM and 57.5 µM, respectively.
